Reference: US11241455B2, “Methods of treating disease by metabolic control of T-cell differentiation” (The J. David Gladstone Institutes, a testamentary trust …, priority 2016, dated 2022)

What was measured:
[1] = test system: differentiating TH17 cells; assay: 15N-α-glutamine flux analysis (transamination) in differentiating TH17 cells; assay type: cell-based, mouse
Protocol: (§1) CD4 naïve T cells, differentiating TH17 or iTreg cells (68 hours) were incubated with fresh media prior to labeling. The cells were then cultured for 4 hours at 37° C. with medium where the glutamine was replaced with the corresponding stable isotope label: 2 mM U-^13C glutamine or 2 mM ^15N-α-glutamine for 4 hours at 37° C. The cells were quickly collected and quickly washed with phosphate buffer saline (PBS), pelleted, and snap frozen in liquid nitrogen. The frozen samples were kept in −80° C. until extraction. Cell extracts were prepared by first adding 80/20 MeOH/H2O at −60° C. to the frozen pellets and collecting the supernatant after centrifugation at 4° C. The extracted samples were analyzed by high-resolution liquid-chromatography-mass spectrometry. Unlabeled glutamine-fed cells were used as background.
(§2) For amino acid profiling: The ultra-high pressure liquid chromatography (U-HPLC) system consisted of a Thermo Fisher Scientific (San Jose, USA) U-HPLC pumping system, coupled to an autosampler and degasser. Chromatographic separation of the intracellular metabolites was achieved by usage of a reversed phase Atlantis® T3 (3 μm, 2.1 mm ID×150 mm) column (Waters, Eschborn, Germany) and by implementation of a gradient elution program. […]

[2] = test system: differentiating iTreg cells; assay: 15N-α-glutamine flux analysis (transamination) in differentiating iTreg cells; assay type: cell-based, mouse
Protocol: as §1, §2

[3] = test system: FOXP3 promoter and its intronic CpG island; assay: Methylation analysis by bisulfite sequencing, T cells under iTreg condition; assay type: cell-based, mouse; details: iTreg condition (day 5); 0.5 mM dimethyl R-2-HG or AOA; male mice
Protocol: The method is essentially the same as described previously (Kim, et al. J Exp Med 204 (7), 1543-1551 (2007)). Briefly, genomic DNA was purified with Blood & Cell Culture DNA Midi Kit (Qiagen). Bisufite conversion of genomic DNA was performed using Epitect® bisulfite kit (Qiagen), according to the manufacture's instruction. The PCR product was run on 2% agarose, purified and cloned using TOPO® TA Cloning® Kit with PCR®4. Clones are picked for Sanger sequencing.

[4] = test system: EAE induced in C57BL/6 mice; assay: Mouse experimental autoimmune encephalitis (EAE) model; assay type: in vivo
Protocol: EAE was induced by immunizing mice (12 weeks old, 11-12 mice/group) twice with 300 μg of MOG35-55 peptide (amino acids 35-55; MEVGWYRSPFSROVHLYRNGK (SEQ ID NO: 2)) emulsified in complete Freund's adjuvant, followed by pertussis toxin injection and analyzed. The disease scores were assigned on a scale of 0-5 as follows: 0, none; 1, limp tail or waddling gait with tail tonicity; 2, wobbly gait; 3, hind limb paralysis; 4, hind limb and forelimb paralysis; 5, death. When the disease phenotype was very obvious (average score>1), PBS or (aminooxy)-acetic acid (AOA) (750 μg/mice) was intraperitoneal (i.p.) injected every day. After 8 days of administration of AOA or PBS, the mice were anesthetized, and cells infiltrated into brain and spinal cord were collected for analysis. When indicated, the statistical significance was determined by Student's t test (*, p<0.05; **, p<0.01; ***, p<0.001). All animal work was approved by the Institutional Animal Care and Use Committee (IACUC).
The in vitro findings that AOA regulates the TH17/iTreg balance prompted an investigation into the effects of AOA in vivo in the context of a pathologic TH17-dependent disease state. TH17 cells are the major pathogenic cell population in experimental autoimmune encephalomyelitis (EAE), a mouse model of multiple sclerosis, but FOXP3+regulatory T cells suppress TH17 cell-mediated inflammatory diseases, such as EAE. In the in vitro studies, AOA skewed TH17 differentiation towards FOXP3+ iTreg cells and, therefore, offers a potential to treat TH17-mediated autoimmune diseases. To test this possibility, EAE was induced in C57BL/6 mice by immunizing with myelin oligodendrocyte glycoprotein peptide (MOG35-55) in complete Freund's adjuvant (CFA) as described. AOA or control vehicle was injected daily intraperitoneally after a majority of the mice began to show obvious neurological signs, including tail paralysis that progressed to hind and front limb paralysis (disease score>1). […] The ratio of FOXP3+ cells to IL17+ cells is much higher in AOA-treated mice than in control mice (FIG. 4c).

[5] = brain and spinal cord infiltrated T cells after 8 days of AOA 750 μg/mice i.p. daily, p<0.01

NOCC(=O)O [AOA, (aminooxy)-acetic acid]
reduction of total intracellular 15N-α-aspartate ([1]; differentiating TH17 cells fed 2 mM 15N-α-glutamine for 4 hours): 90% | de novo synthesis for several amino acids (15N label incorporation) ([1]; differentiating TH17 cells, 2 mM 15N-α-glutamine for 4 hours): significant decreases | reduction of total intracellular 15N-α-aspartate ([2]; differentiating iTreg cells fed 2 mM 15N-α-glutamine for 4 hours): 75% | de novo synthesis for several amino acids (15N label incorporation) ([2]; differentiating iTreg cells, 2 mM 15N-α-glutamine for 4 hours): significant decreases | methylation level of FOXP3 promoter and its intronic CpG island [3]: dramatically decreased the methylation levels | recovery from EAE diseases (disease scores, scale of 0-5) ([4]; 750 μg/mice i.p. every day, started when average score>1, versus PBS): significant recovery from EAE diseases | ratio of FOXP3+ cells to IL17+ cells ([4]; AOA-treated mice versus control mice, CNS infiltrated T cells): much higher | percentage of FOXP3+ T cells in the central nervous system [4, 5]: increased | percentage of TH17 cells in the central nervous system [4, 5]: significantly reduced
